Tests used:
[1] = Adverse events in Phase 3 constipation studies; format: in vivo, human; settings: Phase 3 studies, doses required for effective treatment of constipation
Text: An Adverse Event (AE) is any untoward medical occurrence associated with the use of a drug in humans, whether or not considered drug related. An AE can therefore be any unfavorable and unintended sign (including a clinically significant abnormal laboratory finding), symptom, or disease temporally associated with the use of a medicinal (investigational) product.
These adverse reactions were transient and subsided rapidly upon dose adjustment or cessation.

[2] = system: calcium absorption; settings: rats, diet containing 5% lactitol, two weeks; cited from earlier work
[3] = estimated; cited from earlier work
[4] = system: plasma glucose; settings: 25 grams, eight healthy male volunteers; cited from earlier work
[5] = Fed v. fasted administration of lactitol: plasma lactitol pharmacokinetics (LC-MS/MS); format: in vivo, human
Description: A study was performed to determine the effects of food on absorption of lactitol. Sixteen subjects (8 males and 8 females) were randomized to either Sequence A (fed/fasted) and the other half to Sequence B (fasted/fed) on Day 1 prior to dosing. Subjects returned for Day 8 dosing, 7 days following dose at Day 1, to receive study drug following the opposite food sequence, have pharmacokinetic samples collected and safety procedures performed. A standard dinner was served approximately 6 hours following dose on Day 1 or Day 8. A nighttime snack was permitted, and a standard breakfast and lunch were served prior to discharge from the clinic.
No food was allowed prior to dosing; water was consumed up to one hour before dosing and then only after one hour after dosing. Subjects assigned to Sequence A (fed/fasted) received a high-calorie and high-fat meal for lunch at 11:30 AM, as described in Table 1. Subjects receiving the high fat high calorie lunch completed the meal within 30 minutes. Dose was administered 30 minutes after the start of the meal. Subjects assigned to Sequence B (fasted/fed) continued to fast prior to dose. The staff mixed the contents of two (2) packets (approximately 21 g) with 8 oz of water. Subjects consumed the dose over 5 to 10 minutes.
Doses were administered 30 minutes after the start of the meal. Subjects assigned to Sequence B (fasted/fed) continued to fast prior to dose. The CRU mixed the contents of two (2) packets (approximately 21 g) with 8 oz of water. Subjects consumed the dose over 5 to 10 minutes.
A high-fat (approximately 50 percent of total caloric content of the meal) and high-calorie (approximately 800 to 1000 calories) meal was used. Blood samples were collected prior to dosing and at 10, 20, 30 and 60 minutes (within +/−3 minutes) and then at 2, 4, 6, 8, 10, 12, 16, 18, 20 and 24 hours (within +/−30 minutes) following dose.
An LC-MS/MS method for the determination of lactitol concentrations in human plasma has been successfully developed and validated. The calibration range of the method is 25.0 to 10,000 ng/ml for lactitol using a 50 μl sample aliquot.

[6] = chronic idiopathic constipation; cited from earlier work

SMILES | adverse events associated with administration [1] | calcium absorption [2] | fraction of an oral dose excreted in urine [3] | rise in plasma glucose after ingestion [4] | % CV values for λz and λ1/2, fasted v. fed ([5]; fasted and fed conditions) | time of peak plasma concentration ([5]; fasted population) | peak plasma concentration of lactitol ([5]; fasted population, approx. 21 g oral dose) | average plasma concentration of lactitol ([5]; fasted population, hour 1, approx. 21 g oral dose) | plasma concentration of lactitol ([5]; fasted population, hour 8) | plasma concentration of lactitol ([5]; fasted population, hour 12 post-dose) | plasma concentration of lactitol remained above ([5]; fasted population, until hour 8) | time of peak plasma concentration ([5]; fed population) | peak plasma concentration of lactitol ([5]; fed population (dose 30 minutes after start of high-fat, high-calorie meal)) | plasma concentration of lactitol ([5]; fed population, hour 8) | plasma concentration of lactitol ([5]; fed population, hour 12 post-dose) | AUC, fed population smaller than fasted population ([5]; fed v. fasted) | peak concentration, fed compared with fasted population ([5]; fed v. fasted) | incidence of most common adverse reactions (nausea, diarrhea, headache, abdominal pain, abdominal distention, flatulence) [6]
OC[C@@H](O)[C@@H](O[C@@H]1O[C@H](CO)[C@H](O)[C@H](O)[C@H]1O)[C@H](O)[C@@H](O)CO [lactitol] | flatulence, nausea, vomiting, abdominal cramping or pain and bloating | significant increase | 0.6% | no rise in plasma glucose | similar | 4 h | 2412 ng/mL | 1193 ng/mL | 935 ng/mL | 218 ng/mL | above 1000 ng/mL | 4 h | 738.25 ng/mL | 387.93 ng/mL | 124.16 ng/mL | 10 times | more than three times smaller | 
CCCCC(F)(F)[C@@]1(O)CC[C@H]2[C@@H](CC(=O)[C@@H]2CCCCCCC(=O)O)O1 [Lubiprostone] |  |  |  |  |  |  |  |  |  |  |  |  |  |  |  |  |  | > 4%

— patent US10806743B1, “Method of administering lactitol to reduce plasma concentration of lactitol” (Braintree Laboratories, Inc., priority 2017, dated 2020)
